Test results reported in ChEMBL document CHEMBL4152345, “Discovery of Novel 1,3,8-Triazaspiro[4.5]decane Derivatives That Target the c Subunit of F1/FO-Adenosine Triphosphate (ATP) Synthase for the Treatment of Reperfusion Damage in Myocardial Infarction” (J Med Chem, 2018).
Blank lines part the entries; values can stand above or below the compound they belong to. Calls of active or inactive are those of the source. The rule behind the calls is not given here.

How the values were obtained:
HeLa [1] = assay: Inhibition of F1F0-ATP synthase subunit C in human HeLa cells assessed as reduction of ionomycin-induced Ca2+ mediated mPTP opening at 1 uM preincubated for 30 secs followed by ionomycin addition by calcein-cobalt based assay relative to control; assay type: cell-based
[2] = Drug uptake in human HeLa cells mitochondrial fraction by HPLC-HRMS analysis; assay type: ADME, mitochondria, Mitochondria
[3] = Drug uptake in human HeLa cells endoplasmic reticulam fraction by HPLC-HRMS analysis; assay type: ADME, subcellular
[4] = Drug uptake in human HeLa cells cytosolic fraction by HPLC-HRMS analysis; assay type: ADME, subcellular; conditions: cytosol
Mus musculus = species on record: Mus musculus; assay: Inhibition of Inhibition of F1F0-ATP synthase subunit C in SV129 mouse liver mitochondria assessed as reduction of Ca2+ induced mPTP opening by measuring reduction in mitochondrial swelling at 1 uM measured after 10 mins relative to control
HeLa [5] = assay: Effect on basal mitochondrial membrane potential in human HeLa cells by TMRM dye based fluorescence assay; assay type: ADME, cell-based
HeLa [6] = assay: Effect on mitochondrial calcium uptake in human HeLa cells after 24 hrs by aequorin luminometric analysis; assay type: ADME, cell-based
HeLa [7] = assay: Effect on number of mitochondria in human HeLa cells after 24 hrs by mtCherry staining based microscopic analysis; assay type: ADME, cell-based
HeLa [8] = assay: Effect on network volume of mitochondria in human HeLa cells after 24 hrs by calcin staining based microscopic analysis; assay type: ADME, cell-based
HeLa [9] = assay: Cytotoxicity against human HeLa cells assessed as reduction in cell viability at 1 to 10 uM after 24 to 48 hrs by MTT assay; assay type: cell-based
HeLa [10] = assay: Cytotoxicity against human HeLa cells assessed as reduction in cell viability at 1 to 10 uM after 72 hrs by MTT assay; assay type: cell-based
HeLa [11] = assay: Inhibition of F1F0-ATP synthase subunit C in human HeLa cells assessed as reduction of cytC release at 1 uM after 5 mins by immunoblot analysis; assay type: cell-based
HeLa [12] = assay: Inhibition of F1F0-ATP synthase subunit C in human HeLa cells assessed as reduction in apoptosis by TUNEL assay; assay type: cell-based
HeLa [13] = assay: Inhibition of F1F0-ATP synthase subunit C in human HeLa cells assessed as enzyme dimerization by measuring mitochondrial permeability transition at 1 uM by PLA based assay; assay type: cell-based
HeLa [14] = assay: Reduction in mitochondrial ATP content in human HeLa cells expressing mitochondrially targeted Photinus pyralis luciferase at 1 uM by luciferin-luciferase assay; assay type: ADME, cell-based
HeLa [15] = assay: Reduction in mitochondrial ATP content in human HeLa cells expressing mitochondrially targeted Photinus pyralis luciferase at 1 uM in presence of 100 um histamine by luciferin-luciferase assay; assay type: ADME, cell-based
HeLa [16] = assay: Effect on mitochondrial morphology in human HeLa cells after 24 hrs by mtCherry staining based microscopic analysis; assay type: ADME, cell-based
Heart [17] = assay: Cardioprotective activity in Langendorff perfused Wistar rat heart model of ischemia-reperfusion injury model assessed as increase left ventricular developed pressure at 10 uM dosed during first 10 mins reflow; assay type: functional
Heart [18] = assay: Cardioprotective activity in Langendorff perfused Wistar rat heart model of ischemia-reperfusion injury model assessed as reduction of coronary perfusion pressure at 10 uM dosed during first 10 mins reflow; assay type: functional; design: scale not given: the % may be the effect or the level left
Heart [19] = assay: Cardioprotective activity in Langendorff perfused Wistar rat heart model of ischemia-reperfusion injury model assessed as reduction of end diastolic pressure at 10 uM dosed during first 10 mins reflow; assay type: functional; design: scale not given: the % may be the effect or the level left
Heart [20] = assay: Cardioprotective activity in Langendorff perfused Wistar rat heart model of ischemia-reperfusion injury model assessed as reduction of apoptosis at 10 uM dosed during first 10 mins reflow by TUNEL assay; assay type: functional
HeLa [21] = assay: Binding affinity of F1F0-ATP synthase c subunit in human HeLa cells at 60 to 80 degC after 30 mins by cellular thermal shift assay; assay type: cell-based
Homo sapiens = species on record: Homo sapiens; assay: Binding affinity of F1F0-ATP synthase c subunit in isolated mitochondria of human HeLa cells after 30 mins by UPLC-XEVO-TQD analysis
[22] = Drug uptake in human HeLa cells mitochondrial fraction assessed as retention time by HPLC-HRMS analysis; assay type: ADME, mitochondria, Mitochondria
[23] = molecular target: ATP synthase F(1) complex subunit alpha, mitochondrial (Homo sapiens) (UniProt P25705); assay: Binding affinity of ATP5A in human HeLa cells assessed as melting temperature after 30 mins by cellular thermal shift assay; assay type: cell-based
Chain of ATP synthase F(1) complex subunit alpha, mitochondrial (Homo sapiens) (P25705 whole entry, one chain of several): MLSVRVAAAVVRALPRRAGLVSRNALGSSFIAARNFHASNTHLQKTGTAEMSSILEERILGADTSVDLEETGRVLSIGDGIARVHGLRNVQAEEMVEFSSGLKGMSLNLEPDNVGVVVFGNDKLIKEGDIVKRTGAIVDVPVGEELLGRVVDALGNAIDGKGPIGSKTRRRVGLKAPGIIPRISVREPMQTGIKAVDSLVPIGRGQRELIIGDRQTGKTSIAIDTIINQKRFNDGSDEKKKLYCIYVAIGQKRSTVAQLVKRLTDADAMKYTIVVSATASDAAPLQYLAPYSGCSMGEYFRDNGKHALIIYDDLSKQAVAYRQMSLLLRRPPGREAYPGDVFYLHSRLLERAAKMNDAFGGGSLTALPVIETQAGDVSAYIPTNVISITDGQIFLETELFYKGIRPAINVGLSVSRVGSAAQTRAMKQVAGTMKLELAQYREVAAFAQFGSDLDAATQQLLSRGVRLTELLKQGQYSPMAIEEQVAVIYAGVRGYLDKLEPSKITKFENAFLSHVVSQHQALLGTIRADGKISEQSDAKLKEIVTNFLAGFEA

SMILES: O=C(NC1CCCCC1)N1CCC2(CC1)C(=O)NCN2c1ccccc1
- inhibition (HeLa [1]): 51.3%

SMILES: CC(C)c1ccc(N2C=NC(=O)C23CCN(Cc2ccccc2)CC3)cc1
- inhibition (HeLa [1]): 6.5%

SMILES: CCC1/C=C/C=C/C[C@H](C)[C@@H](O)[C@](C)(O)C(=O)[C@@H](C)[C@H](O)[C@@H](C)C(=O)[C@H](C)[C@@H](O)[C@H](C)/C=C/C(=O)OC2[C@@H](C)C(CC1)OC1(CC[C@@H](C)C(C[C@H](C)O)O1)[C@@H]2C (stereo not given in full)
- Drug uptake [2]: Active
- Drug uptake [3]: Active
- Drug uptake [4]: Active

SMILES: O=C1N=CN(c2ccc(F)cc2)C12CCN(Cc1ccccc1)CC2
- inhibition (HeLa [1]): 28.8%

SMILES: O=C1NCN(c2ccc(F)cc2)C12CCN(Cc1ccccc1)CC2
- inhibition (HeLa [1]): 42.9%

SMILES: O=C1NCN(c2ccc(F)cc2)C12CCN(S(=O)(=O)c1ccc(Cl)s1)CC2
- inhibition (HeLa [1]): 12.6%

SMILES: CC(=O)N1CCC2(CC1)C(=O)NCN2c1ccccc1
- inhibition (HeLa [1]): 47.9%

SMILES: O=C1NCN(c2cccc(C(F)(F)F)c2)C12CCN(Cc1ccccc1)CC2
- inhibition (HeLa [1]): 65.5%
- inhibition (Mus musculus): Active
- Activity (HeLa [5]): Non-Toxic
- Activity (HeLa [6]): Non-Toxic
- Activity (HeLa [7]): Non-Toxic
- Activity (HeLa [8]): Non-Toxic
- Activity (HeLa [9]): Non-Toxic
- Activity (HeLa [10]): Toxic
- inhibition (HeLa [11]): Active
- inhibition (HeLa [12]): Active
- inhibition (HeLa [13]): Active
- Activity (HeLa [14]): Non-Toxic
- Activity (HeLa [15]): Non-Toxic
- Activity (HeLa [16]): Non-Toxic

- inhibition (Mus musculus): Active
SMILES: O=C1N=CN(c2ccc(Cl)cc2)C12CCN(Cc1ccccc1)CC2
- inhibition (HeLa [1]): 57.4%
- Activity (HeLa [5]): Non-Toxic
- Activity (HeLa [6]): Non-Toxic
- Activity (HeLa [7]): Non-Toxic
- Activity (HeLa [8]): Non-Toxic
- Activity (HeLa [9]): Non-Toxic
- Activity (HeLa [10]): Toxic
- inhibition (HeLa [11]): Active
- inhibition (HeLa [12]): Active
- Activity (HeLa [14]): Toxic
- Activity (HeLa [15]): Non-Toxic
- Activity (HeLa [16]): Non-Toxic

- inhibition (Mus musculus): Active
SMILES: O=C1NCN(c2ccccc2)C12CCN(S(=O)(=O)c1ccc(Cl)s1)CC2
- inhibition (HeLa [1]): 66.8%
- Activity (HeLa [5]): Non-Toxic
- Activity (HeLa [6]): Non-Toxic
- Activity (HeLa [7]): Non-Toxic
- Activity (HeLa [8]): Non-Toxic
- Activity (HeLa [9]): Non-Toxic
- Activity (HeLa [10]): Toxic
- inhibition (HeLa [11]): Active
- inhibition (HeLa [12]): Active
- inhibition (HeLa [13]): Active
- Activity (Heart [17]): 36.4%
- Activity (Heart [18]): 17.5%
- Activity (Heart [19]): 72%
- Activity (Heart [20]): Active
- Activity (HeLa [14]): Non-Toxic
- Activity (HeLa [15]): Non-Toxic
- Activity (HeLa [16]): Non-Toxic

SMILES: CS(=O)(=O)N1CCC2(CC1)C(=O)NCN2c1ccccc1
- inhibition (HeLa [1]): 47.5%

SMILES: O=C1NCN(c2ccccc2)C12CCN(Cc1ccccc1)CC2
- inhibition (HeLa [1]): 36.8%

SMILES: COc1ccc(N2CNC(=O)C23CCN(Cc2ccccc2)CC3)cc1
- inhibition (HeLa [1]): 26.2%

SMILES: O=C(Nc1ccccc1)N1CCC2(CC1)C(=O)NCN2c1ccccc1
- inhibition (HeLa [1]): inactive

SMILES: COc1ccc(N2C=NC(=O)C23CCN(Cc2ccccc2)CC3)cc1
- inhibition (HeLa [1]): 43.8%

SMILES: Cc1ccc(N2CNC(=O)C23CCN(Cc2ccccc2)CC3)cc1
- inhibition (HeLa [1]): 18.1%

SMILES: O=C1N=CN(c2cccc(C(F)(F)F)c2)C12CCN(Cc1ccccc1)CC2
- inhibition (HeLa [1]): 32.1%

- inhibition (Mus musculus): Active
- Drug uptake [2]: Active
- Drug uptake [3]: Not Active
- Drug uptake [4]: Not Active
- Activity (Homo sapiens): Active
- Retention_time [22]: 8.2 min
- Activity [23]: inactive
SMILES: Cc1ccc(S(=O)(=O)N2CCC3(CC2)C(=O)NCN3c2ccccc2)cc1
- Activity (HeLa [21]): Active
- inhibition (HeLa [1]): 30.7 to 50%
- Activity (HeLa [14]): Toxic
- Activity (HeLa [15]): Toxic

SMILES: Cc1ccc(N2C=NC(=O)C23CCN(Cc2ccccc2)CC3)cc1
- inhibition (HeLa [1]): 18.7%

SMILES: CC(C)c1ccc(N2CNC(=O)C23CCN(Cc2ccccc2)CC3)cc1
- inhibition (HeLa [1]): 20%

SMILES: O=C(c1ccccc1)N1CCC2(CC1)C(=O)NCN2c1ccccc1
- inhibition (HeLa [1]): 43.9%

SMILES: O=C1N=CN(c2ccccc2)C12CCN(Cc1ccccc1)CC2
- inhibition (HeLa [1]): 41.4%

SMILES: O=C1NCN(c2ccc(Cl)cc2)C12CCN(Cc1ccccc1)CC2
- inhibition (HeLa [1]): 51.4%

SMILES: O=C1NCN(c2ccccc2)C12CCN(C(=S)NC1CCCCC1)CC2
- inhibition (HeLa [1]): 33.6%

SMILES: O=C1NCN(c2ccc(F)cc2)C12CCN(S(=O)(=O)c1ccc(F)cc1)CC2
- inhibition (HeLa [1]): 9.1%

SMILES: O=C1NCN(c2ccccc2)C12CCN(S(=O)(=O)c1ccc(F)cc1)CC2
- inhibition (HeLa [1]): 45.5%
